pIC50: −log10 of the molar value. Where two headings read alike, the source gives them in different places.
How the values were obtained:
Assay type in all cases: cell-based
[1] = test system: MYB mRNA; test: Splicing RT-qPCR assay (THP), Table 2A
[2] = test system: MYB mRNA; test: Gene panel canonical junction qPCR assay, decrease in CJ mRNA, Table 3
Summary of the method: (§1)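 A673 (DMEM, 10% FBS, 15,000 cells/well) or K562 (IMDM, 10% FBS) cells treated 24 h at 37 °C with 11-point 3-fold dilutions, top 10 uM, DMSO ≤0.25%. Canonical exon-exon junction mRNA measured by RT-qPCR, normalized to GAPDH, GUSB or PPIA and DMSO (ΔΔCt); IC50 from 4-parameter logistic fit.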

[3] = test system: HTT mRNA; test: as above
Summary of the method: as §1

[4] = test system: SH-SY5Y (human neuroblastoma) cells; test: Cell viability, Cell Titer Glo 2.0 assay; settings: read-out: Viability SHSY5Y.3 GI50
Summary of the method: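 Toxicity screen in SH-SY5Y cells. Compounds were serially diluted in DMSO and then in medium, giving 0.1% DMSO final. Viability was read with CellTiter-Glo 2.0 after 72 h at 37 °C, 5% CO2, against medium-only blank wells.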

[5] = test system: HTT mRNA; test: Splicing RT-qPCR assay (THP), Table 2A
[6] = Table 2A, THP, MYB alternative junction (AJ) mRNA, read-out: MYB AJ (AC50, increase in alternative junction mRNA)
[7] = Table 2A, THP, MYB canonical junction (CJ) mRNA, read-out: MYB CJ (IC50, decrease in canonical junction mRNA)
[8] = decrease in CJ mRNA levels, canonical junction qPCR, gene panel
[9] = Table 2A, THP, HTT alternative junction (AJ) mRNA, read-out: HTT AJ (AC50, increase in alternative junction mRNA)
[10] = Table 2A, THP, HTT canonical junction (CJ) mRNA, read-out: HTT CJ (IC50, decrease in canonical junction mRNA)
[11] = Table 2A (THP), AJ mRNA increase, read-out: MYB AJ (increase in alternative junction mRNA, AC50)
[12] = Table 2A (THP), CJ mRNA decrease, read-out: MYB CJ (decrease in canonical junction mRNA, IC50)
[13] = decrease in canonical junction (CJ) mRNA, gene panel qPCR, Table 3
[14] = Table 2A (THP), AJ mRNA increase, read-out: HTT AJ (increase in alternative junction mRNA, AC50)
[15] = Table 2A (THP), CJ mRNA decrease, read-out: HTT CJ (decrease in canonical junction mRNA, IC50)

SMILES	pIC50 [1, 7]	pIC50 [2, 8]	pIC50 [3, 8]	GI50 [4]	pIC50 [5, 10]	pIC50 [1, 12]	pIC50 [2, 13]	pIC50 [3, 13]	pIC50 [5, 15]	AC50 [1, 6]	AC50 [5, 9]	AC50 [1, 11]	AC50 [5, 14]
COc1nc2c(C(=O)Nc3ccc4nn(C)cc4c3C(C)=O)ccc(N3C[C@H](C)N[C@@H](C)C3)c2s1 [Compound 808]	< 5.00	< 5.00	< 5.00	1 to 10 µM	< 5.00					> 10 µM	1 to 10 µM		
Cn1cc2c(N3CCC(NC4CC4)CC3)cc(F)c(C(=O)Nc3cc4cn(C)nc4n(C)c3=O)c2n1 [Compound 426, 4-[4-(cyclopropylamino)-1-piperidy1]-N-(2,7-dimethyl-6-oxo-pyrazolo[3,4-b]pyridin-5-y1)-6-fluoro-2-methyl-indazole-7-carboxamide]				1 to 10 µM		6.00 to 7.00	6.00 to 7.00	5.00 to 6.00	5.00 to 6.00			0.1 to 1 µM	1 to 10 µM
Cc1cn2cc(NC(=O)c3ccc(N4CCNCC4)c4cn(C)nc34)nc2c(CNS(C)(=O)=O)n1 [Compound 811]	< 5.00	< 5.00	< 5.00	> 10 µM	< 5.00					1 to 10 µM	> 10 µM		
CCNC1CCN(c2ccc(C(=O)Nc3cc(C)c(=O)n(C)c3)c3nn(C)cc23)CC1 [Compound 561, N-(1,5-dimethyl-6-oxo-3-pyridyl)-4-[4-(ethylamino)-1-piperidyl]-2-methyl-indazole-7-carboxamide]				> 10 µM		5.00 to 6.00	5.00 to 6.00	< 5.00	< 5.00			> 10 µM	> 10 µM
COc1cc2nn(C)cc2cc1NC(=O)c1ccc(N2CCC3NCCC3C2)c2cn(C)nc12 (stereo not drawn) [Compound 543]				1 to 10 µM		6.00 to 7.00	6.00 to 7.00	5.00 to 6.00	5.00 to 6.00			0.1 to 1 µM	1 to 10 µM
C=CCNC1CCN(c2cc(O)c(C(=O)Nc3cc(CNS(C)(=O)=O)c4nn(C)cc4c3)c3nn(C)cc23)CC1 [Compound 854]	6.00 to 7.00	6.00 to 7.00	< 5.00	1 to 10 µM	< 5.00					0.1 to 1 µM	1 to 10 µM		
Cc1cn2cc(NC(=O)c3c(F)cc(N4CCC(NC5CC5)CC4)c4cn(C)nc34)c(F)c2c(C)n1 [Compound 453, 4-[4-(cyclopropylamino)-1-piperidyl]-6-fluoro-N-(8-fluoro-1,3-dimethyl-pyrrolo[1,2-a]pyrazin-7-yl)-2-methyl-indazole-7-carboxamide]				1 to 10 µM		6.00 to 7.00	6.00 to 7.00	< 5.00	< 5.00			< 0.1 µM	> 10 µM
C=CCNC1CCN(c2ccc(C(=O)Nc3cn4cc(C)nc(C)c4c3OC)c3nn(C)cc23)CC1 [Compound 458, 4-[4-(allylamino)-1-piperidyl]-N-(8-methoxy-1,3-dimethyl-pyrrolo[1,2-a]pyrazin-7-yl)-2-methyl-indazole-7-carboxamide]				1 to 10 µM		5.00 to 6.00	5.00 to 6.00	5.00 to 6.00	5.00 to 6.00			1 to 10 µM	1 to 10 µM
Cc1cn2cc(NC(=O)c3ccc(N4CCC(NC5CC5)CC4)c4cn(C)nc34)nc2c(CNS(C)(=O)=O)n1 [Compound 694, 4-(4-(cyclopropylamino)piperidin-1-yl)-2-methyl-N-(6-methyl-8-(methylsulfonamidomethyl)imidazo[1,2-a]pyrazin-2-yl)-2H-indazole-7-carboxamide 2,2,2-trifluoroacetate]	< 5.00	< 5.00	< 5.00	> 10 µM	< 5.00					> 10 µM	> 10 µM		
Cc1cn2cc(NC(=O)c3ccc(N4CCC(NC5CC5)CC4)c4cn(C)nc34)nc2c(CN)n1 [Compound 734, N-(8-(aminomethyl)-6-methylimidazo[1,2-a]pyrazin-2-yl)-4-(4-(cyclopropylamino)piperidin-1-yl)-2-methyl-2H-indazole-7-carboxamide bis(2,2,2-trifluoroacetate)]	< 5.00	< 5.00	< 5.00	> 10 µM	< 5.00					> 10 µM	> 10 µM		
CCNC1CCN(c2cc(OC)c(C(=O)Nc3cn4cc(C)nc(C)c4n3)c3nn(C)cc23)CC1 [Compound 333, N-(6,8-dimethylimidazo[1,2-a]pyrazin-2-yl)-4-[4-(ethylamino)-1-piperidyl]-6-methoxy-2-methyl-indazole-7-carboxamide]				> 10 µM		< 5.00	< 5.00	< 5.00	< 5.00			> 10 µM	> 10 µM

Further lines, with some results ahead:

pIC50 [1, 7]	pIC50 [2, 8]	pIC50 [3, 8]	GI50 [4]	pIC50 [5, 10]	pIC50 [1, 12]	pIC50 [2, 13]	pIC50 [3, 13]	pIC50 [5, 15]	SMILES	AC50 [1, 6]	AC50 [5, 9]	AC50 [1, 11]	AC50 [5, 14]
5.00 to 6.00	5.00 to 6.00	< 5.00	1 to 10 µM	< 5.00					COc1cc2c(N3CCC(NC4CC4)CC3)ccc(C(=O)Nc3cn4cc(C)nc(CNS(C)(=O)=O)c4n3)n2n1 [Compound 806]	1 to 10 µM	> 10 µM		
> 7.00	> 7.00	> 7.00	< 0.1 µM	> 7.00					COc1cc2c(N3CCC(NC4CC4)CC3)ccc(C(=O)Nc3cn4cc(C)nc4c(F)c3OC)n2n1 [Compound 688, 4-[4-(cyclopropylamino)-1-piperidyl]-N-(8-fluoro-7-methoxy-2-methyl-imidazo[1,2-a]pyridin-6-yl)-2-methoxy-pyrazolo[1,5-a]pyridine-7-carboxamide]	< 0.1 µM	0.1 to 1 µM		
6.00 to 7.00	6.00 to 7.00	6.00 to 7.00	0.1 to 1 µM	6.00 to 7.00					Cc1cn2cc(NC(=O)c3ccc(N4CCC(NC5CC5)CC4)n4nc(C)nc34)nc2c(C)n1 [Compound 641, 5-[4-(cyclopropylamino)-1-piperidyl]-N-(6,8-dimethylimidazo-[1,2-a]pyrazin-2-yl)-2-methyl-[1,2,4]-triazolo[1,5-a]pyridine-8-carboxamide]	0.1 to 1 µM	0.1 to 1 µM		
6.00 to 7.00	6.00 to 7.00	5.00 to 6.00	0.1 to 1 µM	5.00 to 6.00					Cc1nc2c(F)cc(NC(=O)c3ccc(N4CCC(NC5CC5)CC4)c4cn(C)nc34)cn2n1 [Compound 755, 4-[4-(cyclopropylamino)-1-piperidyl]-N-(8-fluoro-2-methyl-[1,2,4]triazolo[1,5-a]pyridin-6-yl)-2-methyl-indazole-7-carboxamide]	< 0.1 µM	1 to 10 µM		
			0.1 to 1 µM		6.00 to 7.00	6.00 to 7.00	5.00 to 6.00	5.00 to 6.00	CCNC1CCN(c2ccc(C(=O)Nc3cc(Oc4cccc(Cl)c4)c4nc(C)cn4c3)c3nn(C)cc23)CC1 [Compound 314, N-[8-(3-chlorophenoxy)-2-methylimidazo-[1,2-a]pyridin-6-yl]-4-[4-(ethylamino)-1-piperidyl]-2-methyl-indazole-7-carboxamide]			< 0.1 µM	1 to 10 µM
< 5.00	< 5.00	< 5.00	0.1 to 1 µM	< 5.00					COc1nc2c(C(=O)Nc3cccc4c3cnn4C)ccc(N3C[C@H](C)N[C@@H](C)C3)c2s1 [Compound 715]	> 10 µM	> 10 µM		
> 7.00	> 7.00	6.00 to 7.00	< 0.1 µM	6.00 to 7.00					COc1nc2c(C(=O)Nc3cc(OC)c4nn(C)cc4c3)ccc(N3C[C@H](C)N[C@@H](C)C3)c2s1 [Compound 784, 7-((3S,5S)-3,5-dimethylpiperazin-1-yl)-2-methoxy-N-(7-methoxy-2-methyl-2H-indazol-5-yl)benzo[d]thiazole-4-carboxamide]	< 0.1 µM	0.1 to 1 µM		
> 7.00	> 7.00	6.00 to 7.00	0.1 to 1 µM	6.00 to 7.00					Cc1cn2cc(NC(=O)c3ccc(N4CCC(NC5CC5)CC4)c4cc(CO)nn34)cc(F)c2n1 [Compound 622]	0.1 to 1 µM	0.1 to 1 µM		
> 7.00	> 7.00	> 7.00	< 0.1 µM	> 7.00					COc1nc2c(C(=O)Nc3cc(F)c4nn(C)cc4c3)ccc(N3C[C@H](C)N[C@@H](C)C3)c2s1 [Compound 675, 7-[(3S,5S)-3,5-dimethylpiperazin-1-yl]-N-(7-fluoro-2-methyl-indazol-5-yl)-2-methoxy-1,3-benzothiazole-4-carboxamide]	< 0.1 µM	< 0.1 µM		
			0.1 to 1 µM		6.00 to 7.00	6.00 to 7.00	6.00 to 7.00	6.00 to 7.00	Cc1cn2cc(NC(=O)c3ccc(N4CCC(N5CCNCC5)C4)c4cn(C)nc34)nc2c(C)n1 (stereo not drawn) [Compound 528]			0.1 to 1 µM	0.1 to 1 µM

— US20260285853A1, “COMPOUNDS AND METHODS FOR MODULATING SPLICING” (REMIX THERAPEUTICS INC., priority 2023, published 2026)
